Patent publication US20210230159A1, “4H-PYRIDO[1,2-A]PYRIMIDIN-4-ONE COMPOUNDS” (Prana Biotechnology Limited, priority 2014, published 2021)

Test: Hydrogen peroxide (H2O2) inhibition assay (fluorescence, DCF/horseradish peroxidase)
Format: biochemical
Conditions: for IC50: HCl salt tested where HCl salt MW is given; for Fe-ASC % (cf. 0.4 uM Fe/Asc; cf. CQ, CQ = 100%) / Cu % ASC (cf. CQ = 100%) / Zn % ASC (cf. CQ = 100%): ascorbic acid as reducing substrate; for Fe-ASC % (cf. 0.4 uM Fe/Asc; cf. CQ, CQ = 100%) / Fe-DA % (cf. 0.4 uM Fe/DA; cf. CQ, CQ = 100%): test compound 0.4 μM, lower values = greater inhibition of H2O2; for Fe-DA % (cf. 0.4 uM Fe/DA; cf. CQ, CQ = 100%): dopamine as reducing substrate
Method: Assay 1. Hydrogen Peroxide Assay
H2O2 is a strong oxidizer and a highly reactive oxygen species that is known to be toxic to surrounding proteins and organelles, inhibiting their function. […] […] H2O2 generated by the system is assessed by measuring the specific fluorescence profile at the excitation and emission wavelengths of 485 and 530 nm respectively, in the presence of test compound. Test compounds were dissolved in DMSO and tested at concentrations of 0.4 μM. Test compounds are ranked according to their capacity to inhibit H2O2 generated by the system where lower values reflect greater ability to inhibit H2O2 production.

IC50 | Fe-ASC % (cf. 0.4 uM Fe/Asc; cf. CQ, CQ = 100%) | Fe-DA % (cf. 0.4 uM Fe/DA; cf. CQ, CQ = 100%) | Cu % ASC (cf. CQ = 100%) | Zn % ASC (cf. CQ = 100%) | Compound
> 10000 nM | 123% ASC | 50% | – | – | CN(Cc1cc(=O)n2cccc(O)c2n1)C1CCCCC1 [Compound 1521]
> 10000 nM | 161% ASC | 48% | – | – | CC1CCN(Cc2cc(=O)n3cccc(O)c3n2)CC1 [Compound 1506]
380 nM | 126% ASC | 55% | – | – | O=C(NCc1ccncc1)c1cnc2c(O)cccn2c1=O [Compound 1450]
350 nM | 105% ASC | 55% | – | – | CN(Cc1cccc(F)c1)Cc1cc(=O)n2cccc(O)c2n1 [Compound 1517]
900 nM | – | – | – | – | O=C(c1cnc2c(O)cccn2c1=O)N1CCCC1 [Compound 1532]
350 nM | 100% ASC | 47% | – | – | Cc1ccc(O)c2nc(CN(C)Cc3cccc(Cl)c3)cc(=O)n12 [Compound 1519]
580 nM | 136% ASC | 67% | – | – | O=c1cc(CNc2ccc(F)cc2)nc2c(O)cccn12 [Compound 1451]
300 nM | 125% ASC | 62% | – | – | Cc1ccc(O)c2nc(CN3CCCCC3)cc(=O)n12 [Compound 1471]
– | – | – | Cu 204% ASC | Zn 130% ASC | CCCc1cnc2c(O)c(-c3cccnc3)c(Cl)cn2c1=O [Compound 1629, 7-Chloro-9-hydroxy-3-propyl-8-(pyridin-3-yl)-4H-pyrido[1,2-a]pyrimidine-4-one]
440 nM | 156% ASC | 47% | – | – | Cc1ccc(O)c2nc(CN3CCN(Cc4ccccc4F)CC3)cc(=O)n12 [Compound 1522-]
530 nM | 159% ASC | 57% | – | – | CCCCN(C)Cc1cc(=O)n2cccc(O)c2n1 [Compound 1485]
340 nM | >234% ASC | 47% | – | – | Cc1ccc(O)c2nc(CN(C)C)cc(=O)n12 [Compound 1466]
1190 nM | – | – | – | – | O=C(c1cnc2c(O)cccn2c1=O)N1CCCCC1 [Compound 1533]
580 nM | 137% ASC | 43% | – | – | O=c1cc(CNCC2CCCCC2)nc2c(O)cccn12 [Compound 1458]
700 nM | 135% ASC | 49% | – | – | Cc1ccc(O)c2nc(CN(C)C3CCCCC3)cc(=O)n12 [Compound 1523]
330 nM | 110% ASC | 48% | – | – | O=c1cc(CNCc2ccc(F)c(F)c2)nc2c(O)cccn12 [Compound 1459]
440 nM | 74% ASC | 42% | – | – | Cc1ccc(O)c2nc(CNCc3ccc(F)cc3)cc(=O)n12 [Compound 1467]
590 nM | 158% ASC | 73% | – | – | COc1ccc(CNCc2cc(=O)n3cccc(O)c3n2)cc1OC [Compound 1463]
– | – | – | Cu 248% ASC | Zn 101% ASC | CCCc1cnc2c(O)c(CN(C)C)ccn2c1=O [Compound 1631]
1000 nM | 103% ASC | 54% | – | – | O=c1cc(CN2CCN(Cc3ccccc3F)CC2)nc2c(O)cccn12 [Compound 1515]
300 nM | >222% ASC | 48% | – | – | C#CCN(C)Cc1cc(=O)n2c(C)ccc(O)c2n1 [Compound 1491]
470 nM | 135% ASC | 47% | – | – | O=c1cc(CNCc2ccc(OC(F)(F)F)cc2)nc2c(O)cccn12 [Compound 1464]

Continued, molecule first:

Compound | IC50 | Fe-ASC % (cf. 0.4 uM Fe/Asc; cf. CQ, CQ = 100%) | Fe-DA % (cf. 0.4 uM Fe/DA; cf. CQ, CQ = 100%) | Cu % ASC (cf. CQ = 100%) | Zn % ASC (cf. CQ = 100%)
O=c1cc(CNc2ccc(F)cc2F)nc2c(O)cccn12 [Compound 1444] | 350 nM | 105% ASC | 53% | – | –
CCCCCCNCc1cc(=O)n2cccc(O)c2n1 [Compound 1438] | 240 nM | 143% ASC | 47% | – | –
O=C(NCC1CC1)c1cnc2c(O)cccn2c1=O [Compound 1428] | 430 nM | – | 75% | Cu 212% ASC | Zn 74% ASC
COc1ccc(CNCc2cc(=O)n3cccc(O)c3n2)cc1 [Compound 1443] | 250 nM | 116% ASC | 52% | – | –
O=C(NCCN1CCCC1)c1cnc2c(O)cccn2c1=O [Compound 1426] | 320 nM | – | 62% | Cu 212% ASC | Zn 121% ASC
O=C(NCc1cccnc1)c1cnc2c(O)cccn2c1=O [Compound 1446] | 340 nM | 218% ASC | 56% | – | –
O=c1cc(CNC2CCCC2)nc2c(O)cccn12 [Compound 1435] | 230 nM | 133% ASC | 90% | – | –
CCNCc1cc(=O)n2cccc(O)c2n1 [Compound 1400] | 330 nM | 32% ASC | – | – | –
O=C(NC1CCCCC1)c1cnc2c(O)cccn2c1=O [Compound 1460, N-cyclohexyl-9-hydroxy-4-oxo-4H-pyrido[1,2-a]pyrimidine-3-carboxamide] | 440 nM | 92% ASC | 29% | – | –
CCCCCCCCNC(=O)c1cnc2c(O)cccn2c1=O [Compound 1394] | 720 nM | 96% ASC | – | – | –
CCNC(=O)c1cnc2c(O)cccn2c1=O [Compound 1433] | 390 nM | 152% ASC | 73% | – | –
O=c1cc(CNCCN2CCCC2)nc2c(O)cccn12 [Compound 1417] | 130 nM | 29% ASC | – | – | –
CCCCCNCc1cc(=O)n2cccc(O)c2n1 [Compound 1413] | 190 nM | 42% ASC | – | – | –
O=C(NCCc1ccccn1)c1cnc2c(O)cccn2c1=O [Compound 1427] | 180 nM | – | 74% | Cu 212% ASC | Zn 61% ASC
O=c1cc(CNCc2ccccn2)nc2c(O)cccn12 [Compound 1414] | < 100 nM | 29% ASC | – | – | –
CCCCCCCCNCc1cc(=O)n2cccc(O)c2n1 [Compound 1410] | 430 nM | 62% ASC | – | – | –
